Several values for one entry are separate records, joined by “and”; a condition that tells them apart may be missing. Equal values may be shown once.
What was measured:
[1] = system: N. gonorrhoeae ATCC 49226; design: method as in earlier work; conditions: QC range for N. gonorrhoeae ATCC 49226, ref CLSI; cited from earlier work
P. aeruginosa ATCC 27853 = experiment: IHMA QC MIC; assay type: cell-based
E. coli ATCC 25922 = experiment: IHMA QC MIC; assay type: cell-based
E. faecium (n = 13) = experiment: MIC broth microdilution at IHMA Europe; assay type: cell-based
E. faecalis ATCC 29212 [2] = system: E. faecalis ATCC 29212; design: method as in earlier work; conditions: QC range for E. faecalis ATCC 29212, ref CLSI; cited from earlier work
[3] = system: Haemophilus influenzae (n = 14); experiment: MIC broth microdilution at IHMA Europe; assay type: cell-based, H. influenzae
S. pneumoniae ATCC 49619 [4] = system: S. pneumoniae ATCC 49619; design: method as in earlier work; conditions: QC range for S. pneumoniae ATCC 49619, ref CLSI; cited from earlier work
[5] = system: Neisseria gonorrhoeae (n = 12); experiment: MIC broth microdilution at IHMA Europe; assay type: cell-based
S. pneumoniae (n = 12) = experiment: MIC broth microdilution at IHMA Europe; assay type: cell-based
S. pneumoniae ATCC 49619 [6] = experiment: IHMA QC MIC; assay type: cell-based
Description: (§1) Supplement jm2c01905_si_004.xlsx, sheet "QC" | column: MIC [µg/mL]

H. influenzae ATCC 49766 = experiment: IHMA QC MIC; assay type: cell-based
Description: as §1

H. influenzae ATCC 49247 = experiment: IHMA QC MIC; assay type: cell-based
Description: as §1

E. faecalis ATCC 29212 [7] = experiment: IHMA QC MIC; assay type: cell-based
Description: as §1

[8] = system: N. gonorrhoeae ATCC 49226; experiment: IHMA QC MIC; assay type: cell-based; conditions: QC strain N. gonorrhoeae ATCC 49226, test date 2021-11-18
Description: as §1

## penicillin
[1]
  MIC, CLSI Range: 0,25 - 1 µg/mL
P. aeruginosa ATCC 27853; QC strain P. aeruginosa ATCC 27853, test date 2021-11-11
  MIC: >32 µg/mL and 32 µg/mL
P. aeruginosa ATCC 27853; QC strain P. aeruginosa ATCC 27853, test date 2021-11-26
  MIC: >32 µg/mL
E. coli ATCC 25922; QC strain E. coli ATCC 25922, test date 2021-11-11
  MIC: 32 µg/mL and 16 µg/mL
E. coli ATCC 25922; QC strain E. coli ATCC 25922, test date 2021-11-26
  MIC: 32 µg/mL
E. faecium (n = 13); E. faecium IHMA N° 1764866
  MIC: >32 µg/mL
E. faecium (n = 13); E. faecium IHMA N° 1765436
  MIC: >32 µg/mL
E. faecium (n = 13); E. faecium IHMA N° 1765746
  MIC: >32 µg/mL
E. faecium (n = 13); E. faecium IHMA N° 1893573
  MIC: >32 µg/mL
E. faecium (n = 13); E. faecium IHMA N° 1893846
  MIC: >32 µg/mL
E. faecium (n = 13); E. faecium IHMA N° 1893942
  MIC: >32 µg/mL
E. faecium (n = 13); E. faecium IHMA N° 1894055
  MIC: >32 µg/mL
E. faecium (n = 13); E. faecium IHMA N° 1897027
  MIC: >32 µg/mL
E. faecium (n = 13); E. faecium IHMA N° 1897101
  MIC: >32 µg/mL
E. faecium (n = 13); E. faecium IHMA N° 1904592
  MIC: >32 µg/mL
E. faecium (n = 13); E. faecium IHMA N° 2075051
  MIC: >32 µg/mL
E. faecium (n = 13); E. faecium IHMA N° 2077718
  MIC: >32 µg/mL
E. faecium (n = 13); E. faecium IHMA N° 2083787
  MIC: >32 µg/mL
E. faecium (n = 13); MIC >32 µg/mL
  Cumulative % at MIC: 100.0%
  No. of isolates at MIC: 13
E. faecalis ATCC 29212 [2]
  MIC, CLSI Range: 1 to 4 µg/mL
[3]; H. influenzae IHMA N° 1227715
  MIC: 32 µg/mL
[3]; H. influenzae IHMA N° 1241620
  MIC: 16 µg/mL
[3]; H. influenzae IHMA N° 1244149
  MIC: 32 µg/mL
[3]; H. influenzae IHMA N° 1249803
  MIC: 4 µg/mL
[3]; H. influenzae IHMA N° 1254355
  MIC: 4 µg/mL
[3]; H. influenzae IHMA N° 1258580
  MIC: 16 µg/mL
[3]; H. influenzae IHMA N° 1262734
  MIC: 16 µg/mL
[3]; H. influenzae IHMA N° 1272723
  MIC: 16 µg/mL
[3]; H. influenzae IHMA N° 1286846
  MIC: 16 µg/mL
[3]; H. influenzae IHMA N° 1337530
  MIC: 32 µg/mL
[3]; H. influenzae IHMA N° 1440085
  MIC: 16 µg/mL
[3]; H. influenzae IHMA N° 1479509
  MIC: 16 µg/mL
[3]; H. influenzae IHMA N° 1952952
  MIC: 8 µg/mL
[3]; H. influenzae IHMA N° 2047461
  MIC: >32 µg/mL
[3]; MIC […] µg/mL
  Cumulative % at MIC: 71.4%
  No. of isolates at MIC: 7
[3]; MIC 32 µg/mL
  Cumulative % at MIC: 92.9%
  No. of isolates at MIC: 3
[3]; MIC >32 µg/mL
  Cumulative % at MIC: 100.0%
  No. of isolates at MIC: 1
S. pneumoniae ATCC 49619 [4]
  MIC, CLSI Range: 0,25 - 1 µg/mL
[5]; MIC 0.5 µg/mL
  Cumulative % at MIC: 33.3%
  No. of isolates at MIC: 2
[5]; MIC 1 µg/mL
  Cumulative % at MIC: 50.0%
  No. of isolates at MIC: 2
[5]; MIC 2 µg/mL
  Cumulative % at MIC: 75.0%
  No. of isolates at MIC: 3
[5]; MIC >16 µg/mL
  Cumulative % at MIC: 100.0%
  No. of isolates at MIC: 2
[5]; MIC […]
  Cumulative % at MIC: 16.7%
  No. of isolates at MIC: 2
[5]; MIC […] µg/mL
  Cumulative % at MIC: 83.3%
  No. of isolates at MIC: 1
[5]; isolate IHMA 1123853
  MIC: 4 µg/mL
[5]; isolate IHMA 1130935
  MIC: 0.25 µg/mL
[5]; isolate IHMA 1130989
  MIC: 0.25 µg/mL
[5]; isolate IHMA 1130991
  MIC: 2 µg/mL
[5]; isolate IHMA 1137292
  MIC: 1 µg/mL
[5]; isolate IHMA 1145734
  MIC: 2 µg/mL
[5]; isolate IHMA 1145735
  MIC: >16 µg/mL
[5]; isolate IHMA 1165897
  MIC: >16 µg/mL
[5]; isolate IHMA 1194748
  MIC: 0.5 µg/mL
[5]; isolate IHMA 1194750
  MIC: 0.5 µg/mL
[5]; isolate IHMA 1546199
  MIC: 2 µg/mL
[5]; isolate IHMA 1546215
  MIC: 1 µg/mL
S. pneumoniae (n = 12); MIC 0.5 µg/mL
  Cumulative % at MIC: 25.0%
  No. of isolates at MIC: 2
S. pneumoniae (n = 12); MIC 1 µg/mL
  Cumulative % at MIC: 41.7%
  No. of isolates at MIC: 2
S. pneumoniae (n = 12); MIC 2 µg/mL
  Cumulative % at MIC: 83.3%
  No. of isolates at MIC: 5
S. pneumoniae (n = 12); MIC […] µg/mL
  Cumulative % at MIC: 100.0%
  No. of isolates at MIC: 2
S. pneumoniae (n = 12); MIC ≤0.03 µg/mL
  Cumulative % at MIC: 8.3%
  No. of isolates at MIC: 1
S. pneumoniae (n = 12); S. pneumoniae IHMA N° 1775387
  MIC: 2 µg/mL
S. pneumoniae (n = 12); S. pneumoniae IHMA N° 1776057
  MIC: 1 µg/mL
S. pneumoniae (n = 12); S. pneumoniae IHMA N° 1785617
  MIC: 4 µg/mL
S. pneumoniae (n = 12); S. pneumoniae IHMA N° 1800765
  MIC: 0.5 µg/mL
S. pneumoniae (n = 12); S. pneumoniae IHMA N° 1811259
  MIC: 1 µg/mL
S. pneumoniae (n = 12); S. pneumoniae IHMA N° 1831562
  MIC: ≤0,03 µg/mL
S. pneumoniae (n = 12); S. pneumoniae IHMA N° 1902609
  MIC: 2 µg/mL
S. pneumoniae (n = 12); S. pneumoniae IHMA N° 1979675
  MIC: 2 µg/mL
S. pneumoniae (n = 12); S. pneumoniae IHMA N° 1991963
  MIC: 2 µg/mL
S. pneumoniae (n = 12); S. pneumoniae IHMA N° 2057487
  MIC: 2 µg/mL
S. pneumoniae (n = 12); S. pneumoniae IHMA N° 2073087
  MIC: 4 µg/mL
S. pneumoniae (n = 12); S. pneumoniae IHMA N° 2117109
  MIC: 0.5 µg/mL
S. pneumoniae ATCC 49619 [6]; QC strain S. pneumoniae ATCC 49619, test date 2021-11-11
  MIC: 0.25 µg/mL
S. pneumoniae ATCC 49619 [6]; QC strain S. pneumoniae ATCC 49619, test date 2021-11-26
  MIC: 0.25 µg/mL
H. influenzae ATCC 49766; QC strain H. influenzae ATCC 49766, test date 2021-11-11
  MIC: 0.25 µg/mL
H. influenzae ATCC 49766; QC strain H. influenzae ATCC 49766, test date 2021-11-26
  MIC: 0.25 µg/mL
H. influenzae ATCC 49247; QC strain H. influenzae ATCC 49247, test date 2021-11-11
  MIC: 4 µg/mL and 8 µg/mL
H. influenzae ATCC 49247; QC strain H. influenzae ATCC 49247, test date 2021-11-26
  MIC: 4 µg/mL
E. faecalis ATCC 29212 [7]; QC strain E. faecalis ATCC 29212, test date 2021-11-11
  MIC: 2 µg/mL
E. faecalis ATCC 29212 [7]; QC strain E. faecalis ATCC 29212, test date 2021-11-26
  MIC: 2 µg/mL
[8]
  MIC: 0.25 µg/mL

Source: article PMC10041525, “New Dual Inhibitors of Bacterial Topoisomerases with Broad-Spectrum Antibacterial Activity and In Vivo Efficacy against Vancomycin-Intermediate Staphylococcus aureus” (Journal of Medicinal Chemistry, 2023)
